Here are results for 17 compounds from patent US20230116602A1, “MCL1 INHIBITORS AND USES THEREOF” (California Institute of Technology, priority 2019, published 2023).

As a reminder, the Kd is the free concentration of one partner at which half of the binding sites on the other are occupied at equilibrium, for simple one-to-one binding. Usually IC50 stands for the concentration at which inhibition is half-maximal.

The target of one assay is MCL1 (Homo sapiens, UniProt Q07820). The experiment in a line: MCL1 affinity assay (competition binding, qPCR readout). Particulars: recombinant MCL1, 11-point 3-fold dilution series. The procedure: Recombinant MCL1, BCL2 and BCXL proteins were prepared in either an E. coli host derived from the BL21 strain or in HEK-293 cells. The recombinant proteins were subsequently tagged with DNA for qPCR detection. Streptavidin-coated magnetic beads were treated for 30 minutes at room temperature with the respective biotinylated peptide ligands for each recombinant protein to generate affinity resins for the assays. The liganded beads were blocked with excess biotin and washed with blocking buffer (SeaBlock (Pierce), 1% BSA, 0.05% Tween 20, 1 mM DTT) to remove unbound ligand and to reduce nonspecific binding. Binding reactions were assembled by combining recombinant protein, liganded affinity beads, and test compounds in 1× binding buffer (20% SeaBlock, 0.17×PBS, 0.05% Tween 20, 6 mM DTT). Test compounds were prepared as 111X stocks in 100% DMSO. The compounds were then diluted directly into the assays such that the final concentration of DMSO was 0.9%. The assay plates were incubated at room temperature with shaking for 1 hour and the affinity beads were washed with wash buffer (1×PBS, 0.05% Tween 20). The beads were then re-suspended in elution buffer (1×PBS, 0.05% Tween 20, 0.5 μM non-biotinylated affinity ligand) and incubated at room temperature with shaking for 30 minutes. The recombinant protein concentration in the eluates was measured by qPCR. Kds were determined using an 11-point 3-fold compound dilution series with three DMSO control points.
MCL1, sequence (Q07820 whole entry): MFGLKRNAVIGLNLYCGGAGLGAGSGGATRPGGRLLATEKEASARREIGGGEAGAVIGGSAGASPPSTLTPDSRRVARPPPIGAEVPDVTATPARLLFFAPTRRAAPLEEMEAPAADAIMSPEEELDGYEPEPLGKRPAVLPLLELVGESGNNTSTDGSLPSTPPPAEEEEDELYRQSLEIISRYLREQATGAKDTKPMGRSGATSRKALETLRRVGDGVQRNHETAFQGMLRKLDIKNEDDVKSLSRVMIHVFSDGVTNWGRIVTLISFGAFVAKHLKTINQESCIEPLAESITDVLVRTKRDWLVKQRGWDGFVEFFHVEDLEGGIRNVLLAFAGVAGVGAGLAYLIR
For orientation: Quantitative PCR measures a nucleic acid by following its amplification.

Assay [1] has as its system drug-resistant cell lines of Table 3. The experiment in a line: Cell line growth retardation assay, resistant cohort. In kind it is cell-based, Human. Particulars: Homo sapiens, 144 h; arithmetic mean of IC50s over the resistant cohort of Table 3, 6 days growth; read-out: AvgRes IC50. As for the experimental part: (§1) Cells were seeded at densities of 1,000-5,000 cells per well in 48-well tissue culture plates. After a 24 h rest period, cells were treated with compound at 10 μM, 1 μM, […], 0.08 μM, 0.016 μM, and 0.0032 μM. A group of cells were treated with the vehicle in which the compound was prepared and served as a control. Prior to treatment, cells were counted and this count was used as a baseline for the calculation of growth inhibition. The cells were grown in the presence of compounds for 6 days and were counted on day 6. All cell counting was performed using a Synentec Cellavista plate imager. Growth inhibition was calculated as a ratio of cell population doublings in the presence of compound versus the absence of compound. […] IC50 values for each compound were calculated by fitting curves to data points from each dose-response assay using the Proc NLIN function in SAS for Windows version 9.2 (SAS Institute, Inc.).
(§2) Human cancer cell lines were grouped as “sensitive” or “resistant” to MCL1 inhibition based on whether their growth was retarded by AMG-176 (i.e., (1′S,11R,12S,14E,16S,16aR,18aR)-6′-Chloro-3′,4′,12,13,16,16a,17,18,18a,19-decahydro-16-methoxy-11,12-dimethyl-,Spiro[5,7-etheno-1H,11H-cyclobut[i][1,4]oxazepino[3,4-f][1,2,7]thiadiazacyclohexadecine-2(3H),1′(2′H)-naphthalen]-8(9H)-one 10,10-dioxide) or MIK665 (i.e., (R)-2-((5-(3-chloro-2-methyl-4-(2-(4-methylpiperazin-1-yl)ethoxy)phenyl)-6-(4-fluorophenyl)thieno[2,3-d]pyrimidin-4-yl)oxy)-3-(2-((2-(2-methoxyphenyl)pyrimidin-4-yl)methoxy)phenyl)propanoic acid) (data not shown; see Table 3). These sensitive and resistant cohorts were interrogated for response to each compound, and IC50S were calculated for each cell line using the same technique described above. Average IC50S for the sensitive (“AvgSen IC50”) and resistant (“AvgRes IC50”) cohorts were calculated as arithmetic means of the group, and fold differences (“Fold Diff”) between the resistant and sensitive cohorts were calculated by diving the average IC50 for the resistant cohort by the average IC50 for the sensitive cohort. “A” represents an IC50 of 1 μM or less, “B” represents an IC50 of greater than 1 μM to 5 μM, “C” represents an IC50 of greater than 5 μM, “+” represents a fold difference of 10 or more, and “−” represents a fold difference less than 10.

Assay [2] has as its system drug-sensitive cell lines of Table 3. As to the kind of experiment: Cell line growth retardation assay, sensitive cohort. The assay is classed as cell-based, Human. The settings on record: for IC50: Homo sapiens, 144 h, arithmetic mean of IC50s over the sensitive cohort of Table 3, 6 days growth, read-out: AvgSen IC50; for Fold Diff: average IC50 of resistant cohort divided by average IC50 of sensitive cohort. As for the experimental part:
as §1, §2

For the compound `COc1ccccc1-c1nccc(COc2ccccc2C[C@@H](Oc2nsc3cc(-c4nn(C)c5cc(Cl)ccc45)cc(-c4ccc(OCCN5CCN(C)CC5)c(Cl)c4C)c23)C(=O)O)n1` [Compound 97], the Kd on MCL1 lay in the range of 501 to 1500 nM. Further, the half-inhibitory concentration (IC50) in assay [1] is greater than 5000 nM. In addition, in assay [2], the IC50 is 1000 to 5000 nM and the “Fold Diff” value is “− (“−” represents a fold difference less than 10)”.

With `COc1ccccc1-c1nccc(COc2ccccc2C[C@@H](Oc2nsc3cnc(C4CCC4)c(-c4ccc(OC)c(Cl)c4C)c23)C(=O)O)n1` (atropisomer, axis not shown) [Compound 107], the Kd at MCL1 was no more than 100 nM. Further, the IC50 in assay [1] is greater than 5000 nM. For the same compound, in assay [2], the IC50 is greater than 5000 nM and the “Fold Diff” value is given as “− (“−” represents a fold difference less than 10)”.

`COc1ccccc1-c1nccc(COc2ccccc2C[C@@H](Oc2nsc3cnc(-c4cccc(F)c4)c(-c4ccc(OCCC5CCN(C)CC5)c(Cl)c4C)c23)C(=O)O)n1` (atropisomer, axis not shown) [Compound 102]: the Kd on MCL1 is no more than 100 nM. Besides, the IC50 in assay [1] is greater than 5000 nM. In assay [2], the IC50 was in the range of 1000 to 5000 nM and the “Fold Diff” value was “− (“−” represents a fold difference less than 10)”.

Regarding `Cc1c(-c2c(C3CCC3)ncc3snc(O[C@H](Cc4ccccc4OCc4ccnc(-c5cccc(OC(F)(F)F)c5)n4)C(=O)O)c23)ccc(OCCN2CCN(C)CC2)c1Cl` (atropisomer, axis not shown) [Compound 117], the Kd at MCL1 fell in the range of 101 to 500 nM. Besides, in assay [1], the IC50 was greater than 5000 nM. In assay [2], the IC50 fell in the range of 1000 to 5000 nM and the “Fold Diff” value is listed as “− (“−” represents a fold difference less than 10)”.

As for `Cc1c(-c2c(C3CCC3)ncc3snc(O[C@H](Cc4ccccc4OCc4ccnc(C5CCC5)n4)C(=O)O)c23)ccc(OCCN2CCN(C)CC2)c1Cl` (atropisomer, axis not shown) [Compound 104], the Kd at MCL1 fell in the range of 101 to 500 nM. Further, in assay [1], the IC50 was greater than 5000 nM. For the same compound, in assay [2], the IC50 lay within 1000 to 5000 nM and the “Fold Diff” value was “− (“−” represents a fold difference less than 10)”.

`CCOc1cc(-c2ncc3snc(O[C@H](Cc4ccccc4OCc4ccnc(-c5ccccc5OC)n4)C(=O)O)c3c2-c2ccc(OCCN3CCN(C)CC3)c(Cl)c2C)ccn1` (atropisomer, axis not shown) [Compound 32]: at MCL1, the Kd is no more than 100 nM. In addition, the IC50 in assay [1] was greater than 5000 nM. In assay [2], the IC50 was no more than 1000 nM and the “Fold Diff” value is “+ (“+” represents a fold difference of 10 or more)”.

As to `COc1ccccc1-c1nccc(COc2ccccc2C[C@@H](Oc2nsc3cnc(-c4cnn(CC5CCC5)c4)c(-c4ccc(OCCN5CCN(C)CC5)c(Cl)c4C)c23)C(=O)O)n1` (atropisomer, axis not shown) [Compound 90], on MCL1, the Kd was in the range of 101 to 500 nM. The IC50 in assay [1] was greater than 5000 nM. Also, in assay [2], the IC50 lay in the range of 1000 to 5000 nM and the “Fold Diff” value was “− (“−” represents a fold difference less than 10)”.

With `COc1cc(-c2ncc3snc(O[C@H](Cc4ccccc4OCc4ccnc(-c5ccccc5OC)n4)C(=O)O)c3c2-c2ccc(OCCN3CCN(C)CC3)c(Cl)c2C)ccn1` (atropisomer, axis not shown) [Compound 33], the dissociation constant Kd on MCL1 was no more than 100 nM. Also, the IC50 in assay [1] is greater than 5000 nM. In assay [2], the IC50 is no more than 1000 nM and the “Fold Diff” value was “+ (“+” represents a fold difference of 10 or more)”.

For `COc1ccccc1-c1nccc(COc2ccccc2C[C@@H](Oc2nsc3cnc(-c4cnc(C)o4)c(-c4ccc(OCCN5CCN(C)CC5)c(Cl)c4C)c23)C(=O)O)n1` (atropisomer, axis not shown) [Compound 77], the Kd at MCL1 is no more than 100 nM. Moreover, in assay [1], the IC50 is greater than 5000 nM. For the same compound, in assay [2], the IC50 is 1000 to 5000 nM and the “Fold Diff” value is reported as “− (“−” represents a fold difference less than 10)”.

Consider `Cc1c(-c2c(C3CCC3)ncc3snc(O[C@H](Cc4ccccc4OCc4ccnc(C5CC5)n4)C(=O)O)c23)ccc(OCCN2CCN(C)CC2)c1Cl` (atropisomer, axis not shown) [Compound 109], for which the Kd on MCL1 was 101 to 500 nM. Further, the IC50 in assay [1] is greater than 5000 nM. Moreover, in assay [2], the IC50 was 1000 to 5000 nM and the “Fold Diff” value is “− (“−” represents a fold difference less than 10)”.

Consider `Cc1c(-c2c(-c3cccc(F)c3)ncc3snc(O[C@H](Cc4ccccc4OCc4ccnc(OCC(F)(F)F)n4)C(=O)O)c23)ccc(OCCN2CCN(C)CC2)c1Cl` (atropisomer, axis not shown) [Compound 69], for which, at MCL1, the Kd was no more than 100 nM. Also, the IC50 in assay [1] is greater than 5000 nM. Moreover, in assay [2], the IC50 was no more than 1000 nM and the “Fold Diff” value is on record as “+ (“+” represents a fold difference of 10 or more)”.

On to `COc1ccccc1-c1nccc(COc2ccccc2C[C@@H](Oc2nsc3cnc(C4CC4)c(-c4ccc(OCCN(C)C)c(Cl)c4C)c23)C(=O)O)n1` (atropisomer, axis not shown) [Compound 56], for which, on MCL1, the Kd was no more than 100 nM. Besides, the IC50 in assay [1] is greater than 5000 nM. In addition, in assay [2], the IC50 is no more than 1000 nM and the “Fold Diff” value is “+ (“+” represents a fold difference of 10 or more)”.

Consider `Cc1cc(-c2nccc(COc3ccccc3C[C@@H](Oc3nsc4cnc(C5CCC5)c(-c5ccc(OCCN6CCN(C)CC6)c(Cl)c5C)c34)C(=O)O)n2)ccc1S(=O)(=O)N1CCCC1` (atropisomer, axis not shown) [Compound 115], for which, on MCL1, the Kd is 101 to 500 nM. Also, the IC50 is greater than 5000 nM in assay [1] and 1000 to 5000 nM in assay [2]. For the same compound, the “Fold Diff” value in assay [2] is “− (“−” represents a fold difference less than 10)”.

As for `Cc1c(-c2c(N3CC4(COC4)C3)ncc3snc(O[C@H](Cc4ccccc4OCc4ccnn4CC(F)(F)F)C(=O)O)c23)ccc(OCCN2CCN(C)CC2)c1Cl` (atropisomer, axis not shown) [Compound 91], the Kd on MCL1 is greater than 1500 nM. Besides, in assay [1], the IC50 is greater than 5000 nM. In assay [2], the IC50 was greater than 5000 nM and the “Fold Diff” value is given as “− (“−” represents a fold difference less than 10)”.

On to `COc1cccc(-c2ncc3snc(O[C@H](Cc4ccccc4OCc4ccnc(-c5ccccc5OC)n4)C(=O)O)c3c2-c2ccc(OCCN3CCN(C)CC3)c(Cl)c2C)c1` (atropisomer, axis not shown) [Compound 39], for which, on MCL1, the Kd was in the range of 501 to 1500 nM. Besides, the IC50 in assay [1] and in assay [2] was 1000 to 5000 nM in each case. For the same compound, the “Fold Diff” value in assay [2] was “− (“−” represents a fold difference less than 10)”.

On to `COc1cccc(-c2ncc3snc(O[C@H](Cc4ccccc4OCc4ccnc(OCCC(F)(F)F)n4)C(=O)O)c3c2-c2ccc(OCCN3CCN(C)CC3)c(Cl)c2C)c1` (atropisomer, axis not shown) [Compound 57], for which the dissociation constant Kd at MCL1 is no more than 100 nM. For the same compound, the IC50 in assay [1] is greater than 5000 nM. Moreover, in assay [2], the IC50 is no more than 1000 nM and the “Fold Diff” value was “+ (“+” represents a fold difference of 10 or more)”.

Take `COc1ccccc1-c1nccc(COc2ccccc2C[C@@H](Oc2nsc3cnc(C4CCC4)c(-c4ccc(OC)c(Cl)c4C)c23)C(=O)OCc2oc(=O)oc2C)n1` (atropisomer, axis not shown) [Compound 106]: at MCL1, the Kd was in the range of 101 to 500 nM. The IC50 in assay [1] was greater than 5000 nM. In assay [2], the IC50 was in the range of 1000 to 5000 nM and the “Fold Diff” value was “− (“−” represents a fold difference less than 10)”.
